{"source": "patent US20160037772A1", "about": "“INCREASING ABIOTIC STRESS TOLERANCE IN PLANTS” (priority 2014, published 2016)", "key": {"[1]": {"test_system": "apple trees", "test": "Field trial in apple trees under heat, light and water stress (sunburn, fruit size, yield)", "assay_type": "in vivo", "details": "apples", "protocol": "Field trials were conducted in commercial fields and orchards in Chile during the 2011-12 and 2012-13 growing seasons. The results were evaluated by measuring specific fruit parameters affected by abiotic stress including fruit diameter, fruit number, and amount of damage from heat or sunburn. The plants evaluated were apples and tomatoes. The plants in the trials received a conventional application of pesticides, under normal application conditions. The heat and light stress were considered important from the beginning of fruit development. High temperatures ranged between 30-35° C. ambient temperature measured by conventional methods in the shade from December to harvest.\nFoliage and fruit were evaluated before and after treatments at regular intervals for signs of phytotoxicity. […] Furthermore, no signs of uncontrolled disease incidence was detected.\nSUNCROPS, SUNCROPS PLUS, SCREEN DUO, and ECLIPSE are commercial treatments which are used in the management of abiotic stress. Kaolins and calcium carbonates reduce stress by reflecting the ultraviolet, visible and infrared rays, reducing the impact of excessive heat and light in photosynthesis and other essential plant cellular processes. The dicarboxylic acids, such as the azalaic acid in SUNCROPS PLUS, physiologically act by interacting on lipo-oxygenation processes and production of reactive oxygen species. (Greenberg et al. “The lipid whisker model of the structure of oxidized cell membranes.” J. Biol. Chem. 283, 2385-96, 2008)\nThe apple trees received six applications of each formulation at the dosages indicated in the “Dosage” column of Table 1. Tomato plants received biweekly treatments from fruit formation to fruit harvest (a total of 6 applications).\nThe different stages of fruit development correspond to (1) cell division (2) pit hardening (stone fruits only) (3) cell expansion and (4) fruit ripening. The start of the tests was done during the cell division phase. This phase corresponds to the period with increased susceptibility to damage from high temperatures, and can be correlated with increase in fruits having reduced size and decrease in the number of fruits per plant as a consequence of the abiotic stress due to high temperatures.\nEarly season heat, light and/or water stress can prevent cell division that occurs during phase (1) of the development of apple fruits.\nTesting with apples was conducted in Rancagua, Sixth Region; Chile. The tree fruit load was standardized at a value of about 220 fruits per tree; ±3%, thus eliminating the variability generated by different loads of fruit on the trees. To assess damage from sunburn related to heat and water stress, 100% of the apples were harvested from the tree in each test unit and were classified according to the following scheme shown in Table 2.\nTable 2. Classification scheme based on visual evaluation of the fruit • 0 No visible presence of sunburn • 1 Presence of slight yellowing of the skin (<7% of the surface of the fruit); exportable commercial fruit. • 2 Presence of strong yellowing of the skin (>7% of the surface of the fruit); exportable commercial fruit. • 3 Presence of moderate sunburn skin, no commercial fruit, suitable only for juice or related industry. • 4 Presence of significant sunburn skin, no harvestable fruit unmarketable.\nThe variables measured were: fruit diameter (mm), percentage of sunburn (number of fruits belonging to grades 1 or 2), size of the fruit (measured as weight in grams). The total fruit yield of the tree and the commercial yield (amount of commercial grade fruits, grades 1 or 2) was also measured."}, "[2]": {"test_system": "tomato plants", "test": "Field trial in tomato plants under heat, light and water stress (sunburn, yield, soluble solids)", "assay_type": "in vivo", "details": "6 applications", "procedure": "The study was conducted on tomatoes in a commercial growing field in Botalcura, Talca, Chile. […]\nFor each two meters plot, plants were harvested during six test runs. The fruit were first evaluated visually: fruits with red color as adequate for industrial processing, fruits with green color as inadequate and inappropriate for industrial processing and fruits damaged by the sun as disposable. […]"}}}
{"smiles": "O=CCCCCCCCC(=O)O", "note": "[ONA, 9-Oxononanoic acid]", "values": [{"measurement": "Fruit diameter", "setting": "[1]; Rancagua, Chile, six applications at Table 1 dosage, about 220 fruits per tree", "value": 40.63, "unit": "mm"}, {"measurement": "Effectiveness in protection of fruit compared with commercial treatments", "setting": "[1]; cell division stage", "value": "more effective than commercial treatments"}, {"measurement": "Yield commercial", "setting": "[1]; commercial grade fruits (grades 1 or 2), six applications", "value": 49.7, "unit": "kg/tree"}, {"measurement": "Size", "setting": "[1]; fruit weight, six applications", "value": 146, "unit": "g/apple"}, {"measurement": "Yield total", "setting": "[1]; six applications", "value": 53.9, "unit": "kg/tree"}, {"measurement": "Percent fruit of grades 1 or 2", "setting": "[1]; visual sunburn grading scheme of Table 2, six applications", "value": 88.25, "unit": "%"}, {"measurement": "Soluble solids", "setting": "[2]", "value": 6.4, "unit": "°Brix"}]}
